These results are taken from patent publication US11584744B2 (UNIVERSITY OF WASHINGTON, priority 2017, dated 2023).

Data set [1] is described as follows: Cytotoxicity testing on mammalian cells (AlamarBlue, 48 hours). The class given is cell-based. The settings on record: human. Here is the method:
Cytotoxicity testing on mammalian cells: Compounds were assayed for cytotoxicity against CRL-8155 (human lymphoblasts) and HepG2 cells (human hepatocellular carcinoma). Cells were exposed to serial dilutions of compounds for 48 hours and toxicity was quantified using AlamarBlue (ThermoFisher Scientific, Waltham, Mass.). Assays were performed in quadruplicate and EC50 values were calculated with non-linear regression methods using software by the Collaborative Drug Database (Burlingame, Calif. www.collaborativedrug.com)
On the technique in general: Alamar Blue is a resazurin reagent that responds to reducing activity.

For data set [2], the system named is E. faecium VRE (ATCC 51559). The experiment in a line: MIC susceptibility testing. Type of data set: cell-based, Enterococcus faecium. The procedure, abridged:
(§1)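 CLSI broth microdilution in triplicate, 5×10^5 CFU/mL final, ≤0.5% DMSO; MHB for S. aureus, CA-MHB for E. coli and E. faecium, CA-MHB plus 3% laked horse blood for S. pyogenes (5% CO2).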

Data set [3] has as its system S. aureus MSSA (ATCC 29213). The experiment in a line: MIC susceptibility testing. Type of data set: cell-based, Staphylococcus aureus.
The target in data set [4] is recombinant S. aureus MetRS enzyme (Staphylococcus aureus, UniProt A0A0H2XID2). The experiment in a line: Inhibition of SaMetRS, ATP depletion assay. Type of data set: biochemical. The note with it: recombinant enzyme; lower limit of detection 0.025 μM; read-out: MetRS S. aureus (enzyme) IC50. The procedure, abridged: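 N-terminal 6-His S. aureus MetRS (25 nM) was pre-incubated 15 min at room temperature with compound, 400 μg/mL E. coli tRNA and pyrophosphatase in HEPES-KOH pH 7.9, 2% DMSO. Reaction started with 150 nM ATP plus 20 μM L-methionine, ran 120 min; remaining ATP read by Kinase-Glo luminescence, IC50 by sigmoidal nonlinear regression.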
Chain of recombinant S. aureus MetRS enzyme (A0A0H2XID2 2-657): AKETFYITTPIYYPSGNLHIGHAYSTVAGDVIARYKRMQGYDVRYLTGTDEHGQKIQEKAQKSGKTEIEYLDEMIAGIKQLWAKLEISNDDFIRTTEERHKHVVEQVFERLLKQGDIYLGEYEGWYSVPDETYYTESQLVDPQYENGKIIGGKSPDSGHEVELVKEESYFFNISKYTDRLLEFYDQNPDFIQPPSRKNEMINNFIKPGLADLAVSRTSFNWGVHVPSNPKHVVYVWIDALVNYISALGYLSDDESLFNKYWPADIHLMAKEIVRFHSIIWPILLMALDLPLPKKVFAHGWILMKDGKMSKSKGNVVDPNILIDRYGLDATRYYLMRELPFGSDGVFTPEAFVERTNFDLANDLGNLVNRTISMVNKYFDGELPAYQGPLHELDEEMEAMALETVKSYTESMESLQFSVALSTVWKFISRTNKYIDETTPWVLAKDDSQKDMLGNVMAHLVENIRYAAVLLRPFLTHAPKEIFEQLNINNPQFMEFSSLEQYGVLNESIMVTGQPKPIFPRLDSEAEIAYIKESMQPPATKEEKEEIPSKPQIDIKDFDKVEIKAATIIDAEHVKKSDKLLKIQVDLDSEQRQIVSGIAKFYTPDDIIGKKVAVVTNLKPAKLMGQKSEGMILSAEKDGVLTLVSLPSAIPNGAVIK

A further data set relates to E. faecalis (ATCC 29212). The experiment in a line: MIC susceptibility testing. Type of data set: cell-based.
In data set [5] the test system is S. pneumoniae (ATCC 49619). In words: MIC susceptibility testing. The note with it: Streptococcus pneumoniae, ATCC49619, 18 h, read-out: S. pneumoniae (ATCC 49619) MIC. Type of data set: cell-based.
For data set [6], the system named is S. aureus MRSA (ATCC 43300). In words: MIC susceptibility testing. Type of data set: cell-based. Put shortly:
as §1

In another data set the test system is E. coli (ATCC 25922). In words: MIC susceptibility testing. The class given is cell-based. The note with it: Escherichia coli, ATCC25922. Put shortly: as §1
Data set [7] deals with P. aeruginosa (ATCC 27853). In words: MIC susceptibility testing. Type of data set: cell-based. The note with it: Pseudomonas aeruginosa, ATCC27853.
The next data set deals with S. pyogenes (ATCC 19615). The experiment in a line: MIC susceptibility testing. The class given is cell-based. The note with it: Streptococcus pyogenes, ATCC19615, 18 h, read-out: S. pyogenes (ATCC 19615) MIC.
The conditions of data set [8]: value printed with (49), probably a literature reference; cited from earlier work.
For data set [9] the following is noted: Data from Drugbank; cited from earlier work.
The test system of another data set is S. aureus (ATCC 29213). In words: MBC determinations (with MIC). Type of data set: cell-based. The note with it: Staphylococcus aureus, ATCC29213. Here is the method:
Maximum DMSO concentrations were 0.5%. […] Each experiment's inoculum was serially diluted and plated on TSA to count competent cells. Cultures were incubated at 37° C. for at least 20 h and plated on TSA for CFU determination.
MIC/MBC: Measurements of minimum bactericidal concentrations (MBCs) were done with the S. aureus strain ATCC 29213 (Table 5).

Data set [10] concerns S. aureus MRSA (ATCC 33591). The experiment in a line: MIC susceptibility testing. Type of data set: cell-based, Staphylococcus aureus. The settings on record: Staphylococcus aureus, read-out: S. aureus MRSA (ATCC 33591) MIC. The procedure, abridged:
as §1

The next data set relates to S. aureus. The experiment in a line: Serum shift assays (MIC with and without 50% human serum). Type of data set: cell-based, Staphylococcus aureus. The note with it: for MIC: Staphylococcus aureus. Here is the method:
Serum shift assays: To assess the role of protein binding on compound susceptibility, MIC determinations were performed in triplicate in the presence and absence of 50% human serum. Serial threefold dilutions of 2× compound were generated in MHB and aliquoted onto 96 well plates with a DMSO limit of 0.5%. Bacteria were adjusted to 1*10^8 CFUs/mL in MHB, then further diluted 1:100 in MHB and 100% heat deactivated filter sterilized pooled human serum. Fifty microliters were added to each well of the corresponding plates, and the plates were incubated at 37° C. for ˜20 h. The lowest concentration causing ≥90% growth inhibition was recorded as the MIC.

The subject of data set [11] is S. epidermidis (ATCC 49134). The experiment in a line: MIC susceptibility testing. The note with it: Staphylococcus epidermidis, ATCC49134, read-out: S. epidermidis (ATCC 49134) MIC. The class given is cell-based.
For data set [12], the system named is S. aureus VISA (ATCC 700699). The experiment in a line: MIC susceptibility testing. The class given is cell-based. The settings on record: Staphylococcus aureus, read-out: S. aureus VISA (ATCC 700699) MIC. The procedure, abridged:
as §1

The test system of data set [13] is S. aureus MSSA (ATCC 19636). The experiment in a line: MIC susceptibility testing. The note with it: Staphylococcus aureus, read-out: S. aureus MSSA (ATCC 19636) MIC. The class given is cell-based. The procedure, abridged: as §1
For the next data set, the system named is E. faecium (ATCC 19434). In words: MIC susceptibility testing. Type of data set: cell-based. The settings on record: Enterococcus faecium, ATCC19434, read-out: E. faecium (ATCC 19434) MIC. Put shortly: as §1
Data set [14] has as its system S. epidermidis (ATCC 12228). In words: MIC susceptibility testing. The class given is cell-based. The settings on record: Staphylococcus epidermidis, ATCC12228, read-out: S. epidermidis (ATCC 12228) MIC.
Setting [15] is: CRL-8155 cells (human lymphoblasts), read-out: Mamm. cells (CRL8155) CC50.
[16] abbreviates: HepG2 cells (human hepatocellular carcinoma), read-out: Mamm. cells (HepG2) CC50.
Where [17] appears, read: medium with 3% laked horse blood.

One may read the CC50 as the concentration giving 50% cytotoxicity. Broadly, the MIC is the lowest concentration found to suppress growth. As usually defined, the IC50 is the concentration needed to halve the response being measured. As a reminder, the MBC is the lowest tested concentration that kills the bacteria rather than only halting them. Low readings indicate more potent killing, high ones less potent killing.

Structures are written as SMILES. In brackets after ≈: the same amount, converted by molar mass. Where two headings read alike, the source gives them in different places. Marks after values point to notes of the source that are not given here.

On to `Clc1cc(Cl)cc(CNCCCNc2nc3ncccc3[nH]2)c1` [Compound 1575, N1-(3,5-dichlorobenzyl)—N3-(1H-imidazo[4,5-b]pyridin-2-yl)propane-1,3-diamine], for which the CC50 at 48 h in data set [1] (setting [15]) was 12.2 µg/mL (≈ 34.8 µM); in [1] (setting [16]), above 17.5 µg/mL. For the same compound, the MIC is 0.625 µg/mL (≈ 1.78 µM) in data set [2] (Enterococcus faecium; read-out: E. faecium VRE (ATCC 51559) MIC); 10 µg/mL (≈ 28.6 µM) in data set [3] (Staphylococcus aureus, 18 h; read-out: S. aureus MSSA (ATCC 29213) MIC); 1.25 µg/mL (≈ 3.57 µM) with E. faecalis (ATCC 29212) (Enterococcus faecalis, ATCC29212; read-out: E. faecalis (ATCC 29212) MIC); above 10 µg/mL in data set [5] (setting [17]); above 10 µg/mL in data set [6] (Staphylococcus aureus; read-out: S. aureus MRSA (ATCC 43300) MIC); above 10 µg/mL in the data set with E. coli (ATCC 25922). Also, the minimal inhibitory concentration (MIC) (in data set [7]; in the data set on S. pyogenes (ATCC 19615) (setting [17])) was above 10 µg/mL each time. In [4], the IC50 is below 0.025 µM.
Turning to `CN[C@H](CC(C)C)C(=O)N[C@H]1C(=O)N[C@@H](CC(N)=O)C(=O)N[C@H]2C(=O)N[C@H]3C(=O)N[C@H](C(=O)N[C@H](C(=O)O)c4cc(O)cc(O)c4-c4cc3ccc4O)[C@H](O)c3ccc(c(Cl)c3)Oc3cc2cc(c3O[C@@H]2O[C@H](CO)[C@@H](O)[C@H](O)[C@H]2O[C@H]2C[C@](C)(N)[C@H](O)[C@H](C)O2)Oc2ccc(cc2Cl)[C@H]1O` [VAN, vancomycin], the “% binding to mouse plasma” value in data set [8] is given as 25 (49) %. Besides, the “% binding to human plasma” value in data set [9] is on record as 55* %. Further, the CC50 at 48 h in [1] (setting [15]) and in [1] (setting [16]) was above 145 µg/mL in each case. For the same compound, the MBC in the data set with S. aureus (ATCC 29213) stood at 5 µg/mL (≈ 3.45 µM). Further, the MIC in the data set on S. aureus (ATCC 29213) is 1.25 µg/mL (≈ 0.863 µM); in data set [2] (Enterococcus faecium, read-out: E. faecium VRE (ATCC 51559) MIC) it was above 10 µg/mL; in [3] (Staphylococcus aureus, 18 h, read-out: S. aureus MSSA (ATCC 29213) MIC), 1.25 µg/mL (≈ 0.863 µM); in data set [10], 1.25 µg/mL (≈ 0.863 µM); with S. aureus (read-out: Avg MIC ± SEM (+50% serum), 50% human serum), 1.21 µg/mL; with S. aureus (read-out: Avg MIC ± SEM (no serum), no serum) it was 0.714 ± 0.05 µg/mL. In addition, the MIC in the data set with E. faecalis (ATCC 29212) (Enterococcus faecalis, ATCC29212, read-out: E. faecalis (ATCC 29212) MIC) came to 5 µg/mL (≈ 3.45 µM); in [11], 2.5 µg/mL (≈ 1.73 µM); in data set [5], 0.313 µg/mL (≈ 0.216 µM); in data set [6] (Staphylococcus aureus, read-out: S. aureus MRSA (ATCC 43300) MIC), 1.25 µg/mL (≈ 0.863 µM); in data set [12], 10 µg/mL (≈ 6.9 µM); in [13], 1.25 µg/mL (≈ 0.863 µM). In addition, the minimum inhibitory concentration (MIC) with E. faecium (ATCC 19434) worked out at 0.625 µg/mL (≈ 0.431 µM); in data set [14], 2.5 µg/mL (≈ 1.73 µM); in the data set with S. pyogenes (ATCC 19615), 0.625 µg/mL (≈ 0.431 µM). For the same compound, the IC50 in data set [4] was above 10 µM. Besides, in the data set with S. aureus (50% human serum), the “Avg MIC ± SEM (+50% serum)” value is 1.213 ± 0.12 µg/mL.
